# Molecular target: Factor D (Homo sapiens (Human), UniProt P00746)
# Experiment: Factor D esterolytic assay
# Format: biochemical
# Settings: Z-Lys-SBzl substrate, 100 mM HEPES, 500 mM NaCl, pH 7.5, 10% DMSO; tested a minimum of three times; read-out: Measured Ki (IC50) Value for Compounds: IC50
# Summary of the method: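 Chromogenic thioesterase read-out: Z-Lys-SBzl (1.29 mM) hydrolysis by human Factor D, thiol detected with DTNB at 405 nm (690 nm background subtracted) for 600 s. Run in 100 mM HEPES, 500 mM NaCl, pH 7.5, 10% DMSO, substrate added immediately or after room-temperature preincubation. IC50 from percent inhibition versus enzyme alone, n≥3.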
# Factor D, sequence (P00746 26-253): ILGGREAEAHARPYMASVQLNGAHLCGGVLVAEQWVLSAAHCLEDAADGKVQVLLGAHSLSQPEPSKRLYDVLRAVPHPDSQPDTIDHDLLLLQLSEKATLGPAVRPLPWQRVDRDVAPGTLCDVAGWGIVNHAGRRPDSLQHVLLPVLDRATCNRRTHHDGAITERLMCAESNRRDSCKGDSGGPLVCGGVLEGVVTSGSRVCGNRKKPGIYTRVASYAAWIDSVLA
row,IC50 [nM],Compound
1,< 1000,"COc1ccc(CC(=O)O)c(OCc2c(C)oc3c(NCC4CC4)cc(-c4cccc(CN)c4)cc23)c1 [Compound 274c, 2-(2-((5-(3-(aminomethyl)phenyl)-7-((cyclopropylmethyl)amino)-2-methylbenzofuran-3-yl)methoxy)-4-methoxyphenyl)acetic acid]"
2,< 1000,"NCc1cccc(-c2cc(NC[C@@H]3CCCO3)c3occ(COc4ccccc4CC(=O)O)c3c2)c1 [Compound 275d, (S)-2-(2-((5-(3-(aminomethyl)phenyl)-7-(((tetrahydrofuran-2-yl)methyl)amino)benzofuran-3-yl)methoxy)phenyl)acetic acid]"
3,< 1000,"COc1ccc(CC(=O)O)c(OCc2coc3c(NCC4CC4)cc(-c4cccc(CN)c4)cc23)c1 [Compound 276e, 2-(2-((5-(3-(aminomethyl)phenyl)-7-((cyclopropylmethyl)amino)benzofuran-3-yl)methoxy)-4-methoxyphenyl)acetic acid]"
4,< 1000,"COc1ccc(CC(=O)O)c(OCc2coc3c(NCC4CCCC4)cc(-c4cccc(CN)c4)cc23)c1 [Compound 277c, 2-(2-((5-(3-(aminomethyl)phenyl)-7-((cyclopentylmethyl)amino)benzofuran-3-yl)methoxy)-4-methoxyphenyl)acetic acid]"
5,< 1000,"COc1ccc(CC(=O)O)c(OCc2coc3c(NC(C)C)cc(-c4cccc(CN)c4)cc23)c1 [Compound 278c, 2-(2-((5-(3-(aminomethyl)phenyl)-7-(isopropylamino)benzofuran-3-yl)methoxy)-4-methoxyphenyl)acetic acid]"
6,< 1000,"COc1ccc(CC(=O)O)c(OCc2coc3c(NCC(C)C)cc(-c4cccc(CN)c4)cc23)c1 [Compound 279c, 2-(2-((5-(3-(aminomethyl)phenyl)-7-(isobutylamino)benzofuran-3-yl)methoxy)-4-methoxyphenyl)acetic acid]"
7,< 1000,"CNc1cc(-c2cccc(CN)c2)cc2c(COc3cc(OC)ccc3CC(=O)O)coc12 [Compound 280c, 2-(2-((5-(3-(aminomethyl)phenyl)-7-(methylamino)benzofuran-3-yl)methoxy)-4-methoxyphenyl)acetic acid]"
8,< 1000,"COc1ccc(CC(=O)O)c(OCc2c(C)oc3ccc(-c4ccnc(CN)c4F)cc23)c1 [Compound 281d, 2-(2-((5-(2-(aminomethyl)-3-fluoropyridin-4-yl)-2-methylbenzofuran-3-yl)methoxy)-4-methoxyphenyl)acetic acid]"
9,< 1000,"NCc1cccc(-c2cc3c(COc4ccccc4CC(=O)O)cccc3o2)c1 [Compound 282f, 2-(2-((2-(3-(aminomethyl)phenyl)benzofuran-4-yl)methoxy)phenyl)acetic acid]"
10,< 1000,"Cc1cc2c(o1)c(-c1cccc(CN)c1)cc1c(COc3ccccc3CC(=O)O)coc12 [Compound 283g, 2-(2-((5-(3-(aminomethyl)phenyl)-7-methylbenzo[1,2-b:3,4-b′]difuran-3-yl)methoxy)phenyl)acetic acid]"
11,< 1000,"CCCc1oc2ccc(-c3cccc(CN)c3)cc2c1COc1cc(OC)ccc1CC(=O)O [Compound 284e, 2-(2-((5-(3-(aminomethyl)phenyl)-2-propylbenzofuran-3-yl)methoxy)-4-methoxyphenyl)acetic acid]"
12,< 1000,"CCCc1oc2ccc(-c3cccc(CN)c3)cc2c1COc1cc(C)ccc1CC(=O)O [Compound 285c, 2-(2-((5-(3-(aminomethyl)phenyl)-2-propylbenzofuran-3-yl)methoxy)-4-methylphenyl)acetic acid]"
13,< 1000,"CCCc1oc2ccc(-c3cccc(CN)c3)cc2c1COc1ccccc1CC(=O)O [Compound 286c, 2-(2-((5-(3-(aminomethyl)phenyl)-2-propylbenzofuran-3-yl)methoxy)phenyl)acetic acid]"
14,< 1000,"NCc1cccc(-c2cc3c(COc4ccccc4CC(=O)O)coc3c3ccoc23)c1F [Compound 287b, 2-(2-((5-(3-(aminomethyl)-2-fluorophenyl)benzo[1,2-b:3,4-b′]difuran-3-yl)methoxy)phenyl)acetic acid]"

# The remaining lines, values behind:
row,Compound,IC50 [nM]
1,"CN(Cc1cc(-c2cccc(CN)c2)cc2c(COc3ccccc3CC(=O)O)coc12)CC1CC1 [Compound 263e, 2-(2-((5-(3-(aminomethyl)phenyl)-7-(((cyclopropylmethyl)(methyl)amino)methyl)benzofuran-3-yl)methoxy)phenyl)acetic acid]",< 1000
2,"NCc1cccc(-c2ccc3c(c2)c(COc2ccccc2CC(=O)O)nn3-c2cccnc2)c1 [Compound 264c, 2-(2-((5-(3-(aminomethyl)phenyl)-1-(pyridin-3-yl)-1H-indazol-3-yl)methoxy)phenyl)acetic acid]",< 1000
3,"NCc1cccc(-c2ccc3c(c2)c(COc2ccccc2CC(=O)O)nn3-c2ccncc2)c1 [Compound 265c, 2-(2-((5-(3-(aminomethyl)phenyl)-1-(pyridin-4-yl)-1H-indazol-3-yl)methoxy)phenyl)acetic acid]",< 1000
4,"CC(C)n1nc(COc2ccccc2CC(=O)O)c2cc(-c3ccnc(CN)c3)ccc21 [Compound 266b, 2-(2-((5-(2-(aminomethyl)pyridin-4-yl)-1-isopropyl-1H-indazol-3-yl)methoxy)phenyl)acetic acid]",< 1000
5,"CC(C)n1nc(COc2ccccc2CC(=O)O)c2cc(-c3cccc([C@H](N)CO)c3)ccc21 [Compound 267b, (S)-2-(2-((5-(3-(1-amino-2-hydroxyethyl)phenyl)-1-isopropyl-1H-indazol-3-yl)methoxy)phenyl)acetic acid]",< 1000
6,"Cc1nn(C)c(C)c1-c1cc(-c2cccc(CN)c2)cc2c(COc3ccccc3CC(=O)O)coc12 [Compound 268c, 2-(2-((5-(3-(aminomethyl)phenyl)-7-(1,3,5-trimethyl-1H-pyrazol-4-yl)benzofuran-3-yl)methoxy)phenyl)acetic acid]",< 1000
7,"COc1cc(-c2cccc(CN)c2)cc2c(COc3cc(C(F)(F)F)ccc3CC(=O)O)coc12 [Compound 269c, 2-(2-((5-(3-(aminomethyl)phenyl)-7-methoxybenzofuran-3-yl)methoxy)-4-(trifluoromethyl)phenyl)acetic acid]",< 1000
8,"COc1ccc(CC(=O)O)c(OCc2coc3c(C(F)(F)F)cc(-c4cccc(CN)c4)cc23)c1 [Compound 270c, 2-(2-((5-(3-(aminomethyl)phenyl)-7-(trifluoromethyl)benzofuran-3-yl)methoxy)-4-methoxyphenyl)acetic acid]",< 1000
9,"CC(C)n1nc(COc2ccccc2CC(=O)O)c2cc(-c3ccnc(CN)c3F)ccc21 [Compound 271c, 2-(2-((5-(2-(aminomethyl)-3-fluoropyridin-4-yl)-1-isopropyl-1H-indazol-3-yl)methoxy)phenyl)acetic acid]",< 1000
10,"Cc1cc2c(o1)c(-c1cccc(CN)c1)cc1c(COc3ccccc3CC(=O)O)c(C)oc12 [Compound 272n, 2-(2-((5-(3-(aminomethyl)phenyl)-2,7-dimethylbenzo[1,2-b:3,4-b′]difuran-3-yl)methoxy)phenyl)acetic acid]",< 1000
11,"COc1ccc(CC(=O)O)c(OCc2c(C)oc3c(C4CC4)cc(-c4cccc(CN)c4)cc23)c1 [Compound 273j, 2-(2-((5-(3-(aminomethyl)phenyl)-7-cyclopropyl-2-methylbenzofuran-3-yl)methoxy)-4-methoxyphenyl)acetic acid]",< 1000

# Reference: US20250186391A1, “ORAL COMPLEMENT FACTOR D INHIBITORS” (BioCryst Pharmaceuticals, Inc., priority 2019, published 2025)
